In patent US20200069691A1, “HETEROCYCLIC COMPOUNDS AS HIV PROTEASE INHIBITORS” (Merck Sharp & Dohme Corp., priority 2016, published 2020):

Biological target: T1, wild-type HIV-1 protease (Human immunodeficiency virus type 1 group M subtype B, UniProt P04585)
T1 construct: Escherichia coli expressed wild-type HIV-1 protease protein
Assay: Assay for Inhibition of Microbial Expressed HIV Protease (peptide substrate cleavage, LC-MS/MS readout)
Type: biochemical
Details: E. coli expressed wild-type HIV-1 protease, mean of at least two independent experiments, read-out: HIV Pr Enzyme HIV1 PR IC50
Outline: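 E. coli-expressed wild-type HIV-1 protease ([…]) was preincubated with inhibitor 30 min at room temperature in pH 5.5 acetate buffer (100 mM NaCl, 0.1% BSA). Then 400 μM octapeptide substrate was added and reacted 1 h at 30 °C; inhibition came from LC-MS/MS product peak areas, mean of ≥2 experiments.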

Point of comparison: CC(C)CCC(c1ccc(C(F)(F)F)c(C(=O)N2Cc3nccnc3C2)c1)N1C(=N)N[C@](CCC(C)C)(c2ccccc2)C1=O (stereo partly drawn) [Compound 9, (5R)-3-{1-[3-(5,7-dihydro-6H-pyrrolo[3,4-b]pyrazin-6-ylcarbonyl)-4-(trifluoromethyl)phenyl]-4-methylpentyl}-2-imino-5-(3-methylbutyl)-5-phenylimidazolidin-4-one], IC50 0.6 nM. Against it:
- CC(C)CCC1(c2ccc(F)cc2)NC(=N)N(Cc2ccc(C(F)(F)F)c(C(=O)N3CCc4c(cnn4-c4ccccc4)C3)c2)C1=O (centres unmarked) [Compound 164, 5-(4-fluorophenyl)-2-imino-5-(3-methylbutyl)-3-{3-[(1-phenyl-1,4,6,7-tetrahydro-5H-pyrazolo[4,3-c]pyridin-5-yl)carbonyl]-4-(trifluoromethyl)benzyl} imidazolidin-4-one] — 57-fold higher, 34.1 nM
- CC(C)CCC1(c2ccccc2)NC(=N)N(Cc2ccc(C(F)(F)F)c(C(=O)N3Cc4cncnc4C3)c2)C1=O (centres unmarked) [Compound 152, 3-[3-(5,7-dihydro-6H-pyrrolo[3,4-d]pyrimidin-6-ylcarbonyl)-4-(trifluoromethyl)benzyl]-2-imino-5-(3-methylbutyl)-5-phenylimidazolidin-4-one] — 13-fold higher, 7.8 nM
- CC(C)CC1(c2ccccc2)NC(=N)N(Cc2ccc(C(F)(F)F)c(C(=O)N3Cc4nccnc4C3)c2)C1=O (centres unmarked) [Compound 142, 3-[3-(5,7-dihydro-6H-pyrrolo[3,4-b]pyrazin-6-ylcarbonyl)-4-(trifluoromethyl)benzyl]-2-imino-5-(2-methylpropyl)-5-phenylimidazolidin-4-one] — 5.4-fold higher, 3.23 nM
- N=C1NC(c2ccccc2)(c2ccccc2)C(=O)N1Cc1cccc(C(=O)N2CCN(c3ccccn3)CC2)c1 [Compound 307, 2-imino-5,5-diphenyl-3-{3-[(4-pyridin-2-ylpiperazin-1-yl)carbonyl]benzyl}-imidazolidin-4-one] — 80-fold higher, 47.7 nM
- N=C1NC(c2ccccc2)(c2ccccc2)C(=O)N1Cc1cccc(C(=O)N2Cc3nccnc3C2)c1 [Compound 219, 3-[3-(5,7-dihydro-6H-pyrrolo[3,4-b]pyrazin-6-ylcarbonyl)benzyl]-2-imino-5,5-diphenylimidazolidin-4-one] — 18-fold higher, 11 nM
- N#Cc1ncc2c(n1)CN(C(=O)c1cc(CN3C(=N)NC(c4ccc(F)cc4)(c4ccc(F)cc4)C3=O)ccc1C(F)(F)F)C2 [Compound 134, 6-{[5-{[4,4-bis(4-fluorophenyl)-2-imino-5-oxoimidazolidin-1-yl]methyl}-2-(trifluoromethyl)-phenyl]carbonyl}-6,7-dihydro-5H-pyrrolo[3,4-d] pyrimidine-2-carbonitrile] — 1.8-fold higher, 1.08 nM
- CCCC1(c2ccccc2)NC(=N)N(Cc2cccc(C(=O)N3CCN(c4ncccn4)CC3)c2)C1=O (centres unmarked) [Compound 320, 2-imino-5-phenyl-5-propyl-3-{3-[(4-pyrimidin-2-ylpiperazin-1-yl)carbonyl]benzyl} imidazolidin-4-one] — 95-fold higher, 56.7 nM
- CC(C)CCC1(c2ccccc2)NC(=N)N(Cc2ccc(C(F)(F)F)c(C(=O)N3CCC(F)(F)C3)c2)C1=O (centres unmarked) [Compound 162, 3-{3-[(3,3-difluoropyrrolidin-1-yl)carbonyl]-4-(trifluoromethyl)-benzyl}-2-imino-5-(3-methylbutyl)-5-phenylimidazolidin-4-one] — 54-fold higher, 32.2 nM
- N=C1NC(c2ccc(F)cc2)(c2ccc(F)cc2)C(=O)N1Cc1cncc(C(=O)N2Cc3ccccc3C2)c1 [Compound 394, 3-{[5-(1,3-dihydro-2H-isoindol-2-ylcarbonyl)pyridin-3-yl]methyl}-5,5-bis(4-fluorophenyl)-2-iminoimidazolidin-4-one] — 160-fold higher, 93.1 nM
- N#CCc1ccc(-c2ncc3c(n2)CN(C(=O)c2cc(CN4C(=N)N[C@](CCCC(F)(F)F)(c5ccc(F)cc5)C4=O)ccc2C(F)(F)F)C3)cn1 [Compound 61, [5-(6-{[5-{[(4R)-4-(4-fluorophenyl)-2-imino-5-oxo-4-(4,4,4-trifluorobutyl)imidazolidin-1-yl]methyl}-2-(trifluoromethyl)-phenyl]carbonyl}-6,7-dihydro-5H-pyrrolo[3,4-d]pyrimidin-2-yl)pyridin-2-yl]acetonitrile] — 11-fold higher, 6.6 nM
- CC1c2cc(Cl)c(Cl)cc2CN1C(=O)c1cccc(CN2C(=N)NC(c3ccccc3)(c3ccccc3)C2=O)c1 (centres unmarked) [Compound 322, 3-{3-[(5,6-dichloro-1-methyl-1,3-dihydro-2H-isoindol-2-yl)carbonyl]benzyl}-2-imino-5,5-diphenylimidazolidin-4-one] — 95-fold higher, 56.9 nM
- N=C1N[C@](CCCC(F)(F)F)(c2ccc(F)cc2)C(=O)N1Cc1ccc(C(F)(F)F)c(C(=O)N2Cc3cnc(Cl)nc3C2)c1 [Compound 35, (5R)-3-{3-[(2-chloro-5,7-dihydro-6H-pyrrolo[3,4-d]pyrimidin-6-yl)carbonyl]-4-(trifluoromethyl)-benzyl}-5-(4-fluorophenyl)-2-imino-5-(4,4,4-trifluorobutyl)-imidazolidin-4-one] — 5.7-fold higher, 3.42 nM
- N=C1NC(c2ccccc2)(c2ccccc2)C(=O)N1Cc1cccc(C(=O)N2CCc3cc(F)ccc3C2)c1 [Compound 308, 3-{3-[(6-fluoro-3,4-dihydroisoquinolin-2(1H)-yl)carbonyl]benzyl}-2-imino-5,5-diphenylimidazolidin-4-one] — 82-fold higher, 49 nM
- N=C1NC(c2ccccc2)(c2ccccc2)C(=O)N1Cc1cc(F)cc(C(=O)N2CCn3c(nnc3C(F)(F)F)C2)c1 [Compound 341] — 130-fold higher, 77.5 nM
- Cc1nonc1N1CCN(C(=O)c2cc(CN3C(=N)N[C@](CCCC(F)(F)F)(c4ccc(F)cc4)C3=O)ccc2C(F)(F)F)CC1 [Compound 84, (5R)-5-(4-fluorophenyl)-2-imino-3-[3-{[4-(4-methyl-1,2,5-oxadiazol-3-yl)piperazin-1-yl]carbonyl}-4-(trifluoromethyl)benzyl]-5-(4,4,4-trifluorobutyl)imidazolidin-4-one] — 24-fold higher, 14.1 nM
- N=C1NC(c2ccccc2)(c2ccccc2)C(=O)N1Cc1ccc(C(F)(F)F)c(C(=O)N2CCNC(=O)C2)c1 [Compound 160, 4-({5-[(2-imino-5-oxo-4,4-diphenylimidazolidin-1-yl)methyl]-2-(trifluoromethyl)phenyl}-carbonyl)piperazin-2-one] — 34-fold higher, 20.2 nM
- N=C1N[C@](CCCC(F)(F)F)(c2ccc(F)cc2)C(=O)N1Cc1ccc(C(F)(F)F)c(C(=O)N2Cc3cnc(-c4cccc(N5CCCC5)c4)nc3C2)c1 [Compound 62, (5R)-5-(4-fluorophenyl)-2-imino-3-[3-{[2-(3-pyrrolidin-1-ylphenyl)-5,7-dihydro-6H-pyrrolo[3,4-d]pyrimidin-6-yl]carbonyl}-4-(trifluoromethyl)benzyl]-5-(4,4,4-trifluorobutyl)imidazolidin-4-one] — 11-fold higher, 6.86 nM
- N=C1N[C@](CCCC(F)(F)F)(c2ccc(F)cc2)C(=O)N1Cc1ccc(C(F)(F)F)c(C(=O)N2Cc3cnc(-c4cnc5[nH]ccc5c4)nc3C2)c1 [Compound 39, (5R)-5-(4-fluorophenyl)-2-imino-3-[3-{[2-(1H-pyrrolo[2,3-b]pyridin-5-yl)-5,7-dihydro-6H-pyrrolo[3,4-d]pyrimidin-6-yl]carbonyl}-4-(trifluoromethyl)benzyl]-5-(4,4,4-trifluorobutyl)imidazolidin-4-one] — 6.8-fold higher, 4.1 nM
- COCCn1cc(-c2ncc3c(n2)CN(C(=O)c2cc(CN4C(=N)N[C@](CCCC(F)(F)F)(c5ccc(F)cc5)C4=O)ccc2C(F)(F)F)C3)cn1 [Compound 20, (5R)-5-(4-fluorophenyl)-2-imino-3-[3-({2-[1-(2-methoxyethyl)-1H-pyrazol-4-yl]-5,7-dihydro-6H-pyrrolo[3,4-d]pyrimidin-6-yl}carbonyl)-4-(trifluoromethyl)benzyl]-5-(4,4,4-trifluorobutyl)imidazolidin-4-one] — 3.8-fold higher, 2.3 nM
- Cc1nc2c([nH]1)CN(C(=O)c1cccc(CN3C(=N)NC(CCC(C)C)(c4ccccc4)C3=O)c1)C2 (centres unmarked) [Compound 257, 2-imino-5-(3-methylbutyl)-3-{3-[(2-methyl-4,6-dihydropyrrolo[3,4-d]imidazol-5(1H)-yl)carbonyl]benzyl}-5-phenylimidazolidin-4-one] — 35-fold higher, 21.2 nM
- CC(C)CCC1(c2ccccc2)NC(=N)N(Cc2cccc(C(=O)N3Cc4cncnc4C3)c2)C1=O (centres unmarked) [Compound 227, 3-[3-(5,7-dihydro-6H-pyrrolo[3,4-d]pyrimidin-6-ylcarbonyl)benzyl]-2-imino-5-(3-methylbutyl)-5-phenylimidazolidin-4-one] — 21-fold higher, 12.6 nM
- N=C1NC(c2ccccc2)(c2ccccc2)C(=O)N1Cc1cc(F)cc(C(=O)N2Cc3cncnc3C2)c1 [Compound 258, 3-[3-(5,7-dihydro-6H-pyrrolo[3,4-d]pyrimidin-6-ylcarbonyl)-5-fluorobenzyl]-2-imino-5,5-diphenylimidazolidin-4-one] — 37-fold higher, 22.1 nM
- N=C1N[C@](CCCC(F)(F)F)(c2ccc(F)cc2)C(=O)N1Cc1ccc(C(F)(F)F)c(C(=O)N2CCn3nc(C4CC4)nc3C2)c1 [Compound 122, (5R)-3-{3-[(2-cyclopropyl-5,6-dihydro[1,2,4]triazolo[1,5-a]pyrazin-7(8H)-yl)carbonyl]-4-(trifluoromethyl)benzyl}-5-(4-fluorophenyl)-2-imino-5-(4,4,4-trifluorobutyl)imidazolidin-4-one] — 80-fold higher, 48.1 nM
- CC(C)CC1(c2ccccc2)NC(=N)N(Cc2cccc(C(=O)N3CCC(n4c(=O)[nH]c5nc(F)ccc54)CC3)c2)C1=O (centres unmarked) [Compound 346, 5-fluoro-1-{1-[(3-{[2-imino-4-(2-methylpropyl)-5-oxo-4-phenylimidazolidin-1-yl]methyl}phenyl)-carbonyl]piperidin-4-yl}-1,3-dihydro-2H-imidazo[4,5-b]pyridin-2-one] — 140-fold higher, 82.5 nM
- N=C1N[C@](CCCC(F)(F)F)(c2ccc(F)cc2)C(=O)N1Cc1ccc(C(F)(F)F)c(C(=O)N2Cc3cnc(N)nc3C2)c1 [Compound 57, (5R)-3-{3-[(2-amino-5,7-dihydro-6H-pyrrolo[3,4-d]pyrimidin-6-yl)carbonyl]-4-(trifluoromethyl)-benzyl}-5-(4-fluorophenyl)-2-imino-5-(4,4,4-trifluorobutyl)-imidazolidin-4-one] — 10-fold higher, 6.24 nM
